Results: patent US20220218852A1, “NOVEL RADIOLABELLED CXCR4-TARGETING COMPOUNDS FOR DIAGNOSIS AND THERAPY” (PROVINCIAL HEALTH SERVICES AUTHORITY, priority 2019, published 2022)
Where two headings read alike, the source gives them in different places. Positions of bridges follow the written chain, without caps; N, C: chain ends. Non-standard residues stand in square brackets, D forms with d. Residues, ends and D or L forms follow the SMILES beside them. Groups on a side chain read outwards from the residue. *: point of attachment. DOTA = O=C(O)CN1CCN(CC(=O)O)CCN(CC(=O)*)CCN(CC(=O)O)CC1; 2Nal = N[C@@H](Cc1ccc2ccccc2c1)C(=O)O; Lys(iPr) = CC(C)NCCCC[C@H](N)C(=O)O

How the values were obtained:
[1] = Biodistribution in Daudi tumor-bearing mice; assay type: in vivo; details: male, NOD.Cg-Rag1^tm1MomII2rg^tm1Wjl/SzJ (NRG), mouse, iv, total radioactivity, Daudi xenograft bearing mice
Method: (§1) For Daudi, Z138, GRANTA519 and Jeko1 xenografts, male NOD.Cg-Rag1^tm1MomII2rg^tm1Wjl/SzJ (NRG) mice were subcutaneously inoculated on the left flank with 5×10^6 cells (100 μL; 1:1 ratio of PBS/Matrigel) and tumors were grown to a size of 200-500 mm^3. For PC-3 xenografts, male NOD.Cg-Rag1^tm1MomII2rg^tm1Wjl/SzJ (NRG) mice were subcutaneously inoculated on the left flank with 5×10^6 PC-3 cells (100 μL; 1:1 ratio of PBS/Matrigel) and tumors were grown to a size of 200-400 mm^3.
(§2) The mice were euthanized via CO2 inhalation while anesthetized with isoflurane. Tissues were harvested, washed in PBS, blotted dry, weighed, and measured on a Hidex AMG Automatic Gamma Counter.

[2] = test system: Daudi Burkitt's lymphoma xenografts; test: Biodistribution in Daudi tumor-bearing mice; assay type: in vivo; details: Daudi xenograft bearing mice
Method: as §1, §2

[3] = 1 h blocked (7.5 μg LY2510924 i.p. 15 min before tracer)

## CC(C)NCCCC[C@@H]1NC(=O)[C@H](Cc2ccc(O)cc2)NC(=O)[C@H](Cc2ccccc2)NC(=O)CC[C@H](C(=O)N[C@@H](CCCCNC(C)C)C(=O)N[C@@H](CCCCNC(=O)[C@@H](CCC(=O)O)NC(=O)[C@@H](CCC(=O)O)NC(=O)[C@@H](CCC(=O)O)NC(=O)CN2CCN(CC(=O)O)CCN(CC(=O)O)CCN(CC(=O)O)CC2)C(N)=O)NC(=O)CNC(=O)[C@H](Cc2ccc3ccccc3c2)NC(=O)[C@@H](CCCNC(=N)N)NC1=O [[^68Ga]Ga-BL20, metal not drawn] (FY[Lys(iPr)][dR][2Nal]G[dE][Lys(iPr)]K([dE-dE-dE-DOTA])-NH2; lactam N-7)
[1]; Daudi tumour, 1 h, read-out: Biodistribution Daudi (tumour)
  tissue uptake at 1 h: 9.07 %ID/g
[1]; Daudi tumour, 1 h blocked (7.5 μg LY2510924 i.p. 15 min before tracer), read-out: Biodistribution Daudi (tumour)
  tissue uptake at 1 h: 0.59 %ID/g
[1]; Daudi tumour, read-out: Biodistribution Daudi (tumour)
  tissue uptake at 2 h: 8.01 %ID/g
[1]; adrenals, 1 h, read-out: Biodistribution Adrenals
  tissue uptake at 1 h: 0.35 %ID/g
[1]; adrenals, 1 h blocked (7.5 μg LY2510924 i.p. 15 min before tracer), read-out: Biodistribution Adrenals
  tissue uptake at 1 h: 0.35 %ID/g
[1]; adrenals, read-out: Biodistribution Adrenals
  tissue uptake at 2 h: 0.27 %ID/g
[1]; blood, 1 h, read-out: Biodistribution Blood
  tissue uptake at 1 h: 0.42 %ID/g
[1]; blood, 1 h blocked (7.5 μg LY2510924 i.p. 15 min before tracer), read-out: Biodistribution Blood
  tissue uptake at 1 h: 0.65 %ID/g
[1]; blood, read-out: Biodistribution Blood
  tissue uptake at 2 h: 0.08 %ID/g
[1]; bone, 1 h, read-out: Biodistribution Bone
  tissue uptake at 1 h: 0.17 %ID/g
[1]; bone, 1 h blocked (7.5 μg LY2510924 i.p. 15 min before tracer), read-out: Biodistribution Bone
  tissue uptake at 1 h: 0.15 %ID/g
[1]; bone, read-out: Biodistribution Bone
  tissue uptake at 2 h: 0.05 %ID/g
[1]; brain, 1 h, read-out: Biodistribution Brain
  tissue uptake at 1 h: 0.01 %ID/g
[1]; brain, 1 h blocked (7.5 μg LY2510924 i.p. 15 min before tracer), read-out: Biodistribution Brain
  tissue uptake at 1 h: 0.02 %ID/g
[1]; brain, read-out: Biodistribution Brain
  tissue uptake at 2 h: 0.01 %ID/g
[1]; fat, 1 h, read-out: Biodistribution Fat
  tissue uptake at 1 h: 0.06 %ID/g
[1]; fat, 1 h blocked (7.5 μg LY2510924 i.p. 15 min before tracer), read-out: Biodistribution Fat
  tissue uptake at 1 h: 0.12 %ID/g
[1]; fat, read-out: Biodistribution Fat
  tissue uptake at 2 h: 0.01 %ID/g
[1]; heart, 1 h, read-out: Biodistribution Heart
  tissue uptake at 1 h: 0.15 %ID/g
[1]; heart, 1 h blocked (7.5 μg LY2510924 i.p. 15 min before tracer), read-out: Biodistribution Heart
  tissue uptake at 1 h: 0.22 %ID/g
[1]; heart, read-out: Biodistribution Heart
  tissue uptake at 2 h: 0.05 %ID/g
[1]; intestine, 1 h, read-out: Biodistribution Intestine
  tissue uptake at 1 h: 0.21 %ID/g
[1]; intestine, 1 h blocked (7.5 μg LY2510924 i.p. 15 min before tracer), read-out: Biodistribution Intestine
  tissue uptake at 1 h: 0.37 %ID/g
[1]; intestine, read-out: Biodistribution Intestine
  tissue uptake at 2 h: 0.25 %ID/g
[1]; kidney, 1 h, read-out: Biodistribution Kidney
  tissue uptake at 1 h: 3.58 %ID/g
[1]; kidney, 1 h blocked (7.5 μg LY2510924 i.p. 15 min before tracer), read-out: Biodistribution Kidney
  tissue uptake at 1 h: 5.92 %ID/g
[1]; kidney, read-out: Biodistribution Kidney
  tissue uptake at 2 h: 3.02 %ID/g
[1]; liver, 1 h, read-out: Biodistribution Liver
  tissue uptake at 1 h: 0.58 %ID/g
[1]; liver, 1 h blocked (7.5 μg LY2510924 i.p. 15 min before tracer), read-out: Biodistribution Liver
  tissue uptake at 1 h: 0.44 %ID/g
[1]; liver, read-out: Biodistribution Liver
  tissue uptake at 2 h: 0.51 %ID/g
[1]; lung, 1 h, read-out: Biodistribution Lung
  tissue uptake at 1 h: 0.51 %ID/g
[1]; lung, 1 h blocked (7.5 μg LY2510924 i.p. 15 min before tracer), read-out: Biodistribution Lung
  tissue uptake at 1 h: 0.71 %ID/g
[1]; lung, read-out: Biodistribution Lung
  tissue uptake at 2 h: 0.22 %ID/g
[1]; muscle, 1 h, read-out: Biodistribution Muscle
  tissue uptake at 1 h: 0.08 %ID/g
[1]; muscle, 1 h blocked (7.5 μg LY2510924 i.p. 15 min before tracer), read-out: Biodistribution Muscle
  tissue uptake at 1 h: 0.13 %ID/g
[1]; muscle, read-out: Biodistribution Muscle
  tissue uptake at 2 h: 0.02 %ID/g
[1]; pancreas, 1 h, read-out: Biodistribution Pancreas
  tissue uptake at 1 h: 0.11 %ID/g
[1]; pancreas, 1 h blocked (7.5 μg LY2510924 i.p. 15 min before tracer), read-out: Biodistribution Pancreas
  tissue uptake at 1 h: 0.16 %ID/g
[1]; pancreas, read-out: Biodistribution Pancreas
  tissue uptake at 2 h: 0.04 %ID/g
[1]; spleen, 1 h, read-out: Biodistribution Spleen
  tissue uptake at 1 h: 0.49 %ID/g
[1]; spleen, 1 h blocked (7.5 μg LY2510924 i.p. 15 min before tracer), read-out: Biodistribution Spleen
  tissue uptake at 1 h: 0.3 %ID/g
[1]; spleen, read-out: Biodistribution Spleen
  tissue uptake at 2 h: 0.21 %ID/g
[1]; stomach, 1 h, read-out: Biodistribution Stomach
  tissue uptake at 1 h: 0.05 %ID/g
[1]; stomach, 1 h blocked (7.5 μg LY2510924 i.p. 15 min before tracer), read-out: Biodistribution Stomach
  tissue uptake at 1 h: 0.24 %ID/g
[1]; stomach, read-out: Biodistribution Stomach
  tissue uptake at 2 h: 0.05 %ID/g
[1]; testes, 1 h, read-out: Biodistribution Testes
  tissue uptake at 1 h: 0.15 %ID/g
[1]; testes, 1 h blocked (7.5 μg LY2510924 i.p. 15 min before tracer), read-out: Biodistribution Testes
  tissue uptake at 1 h: 0.2 %ID/g
[1]; testes, read-out: Biodistribution Testes
  tissue uptake at 2 h: 0.05 %ID/g
[2]; 1 h
  Ratio Tumour:Blood: 22.78
  Ratio Tumour:Bone: 54.57
  Ratio Tumour:Liver: 15.68
  Ratio Tumour:Lung: 18.12
  Ratio Tumour:Muscle: 125.40
  Ratio Tumour:Spleen: 18.55
[2]; [3]
  Ratio Tumour:Blood: 0.90
  Ratio Tumour:Bone: 3.88
  Ratio Tumour:Liver: 1.34
  Ratio Tumour:Lung: 0.82
  Ratio Tumour:Muscle: 4.49
  Ratio Tumour:Spleen: 1.96
[2]; 2 h
  Ratio Tumour:Blood: 113.17
  Ratio Tumour:Bone: 189.39
  Ratio Tumour:Liver: 15.57
  Ratio Tumour:Lung: 37.40
  Ratio Tumour:Muscle: 346.93
  Ratio Tumour:Spleen: 41.58
